From patent US20250221410A1, “SUBSTITUTED 2-C-AZINES AND SALTS THEREOF, AND USE THEREOF AS HERBICIDAL ACTIVE SUBSTANCES” (BAYER AKTIENGESELLSCHAFT, priority 2022, published 2025)

Tests used:
Format in all cases: in vivo
[1] = tested on: ABUTH: Abutilon theophrasti; test: Post-emergence herbicidal efficacy at 1280 g/ha, ABUTH; details: rated visually after about 3 weeks vs untreated controls, 100% = plants have died, 0% = like control plants
In short: (§1)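 Visual damage rating was made roughly 3 weeks after treatment, relative to untreated plants, on a scale where 0% means no effect and 100% means plants died. Foliar application was at the one-leaf stage as an aqueous WP/EC spray with 0.5% additive at 600 L/ha water, on greenhouse-grown pot plants.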

[2] = tested on: ALOMY: Alopecurus myosuroides; test: Post-emergence herbicidal efficacy at 1280 g/ha, ALOMY; details: rated visually after about 3 weeks vs untreated controls, 100% = plants have died, 0% = like control plants
Method: (§2) Seeds of mono- and dicotyledonous weed plants were placed in plastic pots in sandy loam soil (doubly sown with in each case one species of mono- or dicotyledonous weed plants per pot), covered with soil and cultivated in a greenhouse under controlled growth conditions. 2 to 3 weeks after sowing, the test plants were treated at the one-leaf stage. The compounds of the invention, formulated in the form of wettable powders (WP) or as emulsion concentrates (EC), were applied to the green parts of the plants as aqueous suspension or emulsion with addition of 0.5% additive at a water application rate equivalent to 600 litres per hectare. After the test plants had been kept in the greenhouse under optimum growth conditions for about 3 weeks, the activity of the preparations was rated visually in comparison to untreated controls. For example, 100% activity=the plants have died, 0% activity=like control plants. Tables A1 to A12 below show the effects of selected compounds of the general formula (I) according to Table 1 on various harmful plants and at an application rate corresponding to 1280 g/ha, which were obtained by the trial procedure specified above.

[3] = tested on: AMARE: Amaranthus retroflexus; test: Post-emergence herbicidal efficacy at 1280 g/ha, AMARE; details: rated visually after about 3 weeks vs untreated controls, 100% = plants have died, 0% = like control plants
In short: as §1

[4] = tested on: DIGSA: Digitaria sanguinalis; test: Post-emergence herbicidal efficacy at 1280 g/ha, DIGSA; details: rated visually after about 3 weeks vs untreated controls, 100% = plants have died, 0% = like control plants
In short: as §1

[5] = tested on: ECHCG: Echinochloa crus-galli; test: Post-emergence herbicidal efficacy at 1280 g/ha, ECHCG; details: rated visually after about 3 weeks vs untreated controls, 100% = plants have died, 0% = like control plants
In short: as §1

KCHSC: Kochia scoparia [6] = test: Post-emergence herbicidal efficacy at 1280 g/ha, KCHSC; details: visual rating about 3 weeks after treatment vs untreated controls
In short: as §1

LOLRI: Lolium rigidum = test: Post-emergence herbicidal efficacy at 1280 g/ha, LOLRI; details: visual rating about 3 weeks after treatment vs untreated controls
Method: as §2

POAAN: Poa annua [7] = test: Post-emergence herbicidal efficacy at 1280 g/ha, POAAN; details: visual rating about 3 weeks after treatment vs untreated controls
In short: as §1

SETVI: Setaria viridis [8] = test: Post-emergence herbicidal efficacy at 1280 g/ha, SETVI; details: visual rating about 3 weeks after treatment vs untreated controls
In short: as §1

STEME: Stellaria media [9] = test: Post-emergence herbicidal efficacy at 1280 g/ha, STEME; details: visual rating about 3 weeks after treatment vs untreated controls
In short: as §1

VERPE: Veronica persica [10] = test: Post-emergence herbicidal efficacy at 1280 g/ha, VERPE; details: visual rating about 3 weeks after treatment vs untreated controls
In short: as §1

[11] = tested on: ABUTH: Abutilon theophrasti; test: Pre-emergence herbicide efficacy at 1280 g/ha, ABUTH; details: visual scoring after about 3 weeks vs untreated controls
In short: (§3)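 Weed seeds were sown in sandy loam, covered with soil, and the soil surface was treated with the compound, formulated as wettable powder or emulsion concentrate, in water containing 0.5% additive at 600 L/ha. Plants then grew in the greenhouse for roughly 3 weeks before percentage efficacy was scored by eye against untreated controls.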

[12] = tested on: ALOMY: Alopecurus myosuroides; test: Pre-emergence herbicide efficacy at 1280 g/ha, ALOMY; details: visual scoring after about 3 weeks vs untreated controls
Description: Seeds of mono- and dicotyledonous weed plants were placed in plastic pots in sandy loam soil (doubly sown with one species each of mono- or dicotyledonous weed plants per pot) and covered with soil. The compounds of the invention, formulated in the form of wettable powders (WP) or as emulsion concentrates (EC), were then applied to the surface of the covering soil as aqueous suspension or emulsion with addition of 0.5% additive at a water application rate of 600 litres per hectare (converted). After the treatment, the pots were placed in a greenhouse and kept under good growth conditions for the test plants. After about 3 weeks, the efficacy of the preparations was scored visually in comparison with untreated controls as percentages. For example, 100% activity=the plants have died, 0% activity=like control plants. Tables C1 to C12 below show the effects of selected compounds of the general formula (I) according to Table 1 on various harmful plants and at an application rate corresponding to 1280 g/ha, which were obtained by the trial procedure specified above.

[13] = tested on: AMARE: Amaranthus retroflexus; test: Pre-emergence herbicide efficacy at 1280 g/ha, AMARE; details: visual scoring after about 3 weeks vs untreated controls
In short: as §3

[14] = tested on: DIGSA: Digitaria sanguinalis; test: Pre-emergence herbicide efficacy at 1280 g/ha, DIGSA; details: visual scoring after about 3 weeks vs untreated controls
In short: as §3

[15] = tested on: ECHCG: Echinochloa crus-galli; test: Pre-emergence herbicide efficacy at 1280 g/ha, ECHCG; details: visual scoring after about 3 weeks vs untreated controls
In short: as §3

KCHSC: Kochia scoparia [16] = test: Pre-emergence herbicide efficacy at 1280 g/ha, KCHSC; details: visual scoring after about 3 weeks vs untreated controls
In short: as §3

POAAN: Poa annua [17] = test: Pre-emergence herbicide efficacy at 1280 g/ha, POAAN; details: visual scoring after about 3 weeks vs untreated controls
In short: as §3

SETVI: Setaria viridis [18] = test: Pre-emergence herbicide efficacy at 1280 g/ha, SETVI; details: visual scoring vs untreated controls
In short: as §3

STEME: Stellaria media [19] = test: Pre-emergence herbicide efficacy at 1280 g/ha, STEME; details: visual scoring vs untreated controls
In short: as §3

VERPE: Veronica persica [20] = test: Pre-emergence herbicide efficacy at 1280 g/ha, VERPE; details: visual scoring vs untreated controls
In short: as §3

[21] = tested on: MATIN: Matricaria inodora; test: Post-emergence herbicidal efficacy at 1280 g/ha, MATIN; details: visual rating about 3 weeks after treatment vs untreated controls
Method: as §2

[22] = tested on: MATIN: Matricaria inodora; test: Pre-emergence herbicide efficacy at 1280 g/ha, MATIN; details: visual scoring after about 3 weeks vs untreated controls
In short: as §3

| Structure (SMILES) | Post-emergence efficacy at 1280 g/ha against ABUTH in % [1] | Post-emergence efficacy at 1280 g/ha against ALOMY in % [2] | Post-emergence efficacy at 1280 g/ha against AMARE in % [3] | Post-emergence efficacy at 1280 g/ha against ECHCG in % [5] | Post-emergence efficacy against KCHSC (KCHSC: Kochia scoparia [6]) | Post-emergence efficacy against LOLRI (LOLRI: Lolium rigidum) | Post-emergence efficacy against POAAN (POAAN: Poa annua [7]) | Post-emergence efficacy against SETVI (SETVI: Setaria viridis [8]) | Post-emergence efficacy against STEME (STEME: Stellaria media [9]) | Post-emergence efficacy against VERPE (VERPE: Veronica persica [10]) | Pre-emergence efficacy against ABUTH [11] | Pre-emergence efficacy against AMARE [13] | Pre-emergence efficacy against DIGSA [14] | Pre-emergence efficacy against ECHCG [15] | Pre-emergence efficacy against KCHSC (KCHSC: Kochia scoparia [16]) | Pre-emergence efficacy against POAAN (POAAN: Poa annua [17]) | Pre-emergence efficacy against SETVI in % (SETVI: Setaria viridis [18]) | Pre-emergence efficacy against STEME in % (STEME: Stellaria media [19]) | Pre-emergence efficacy against VERPE in % (VERPE: Veronica persica [20]) | also measured |
| --- | --- | --- | --- | --- | --- | --- | --- | --- | --- | --- | --- | --- | --- | --- | --- | --- | --- | --- | --- | --- |
| Cc1cccc(Oc2ncc(Cl)cc2F)c1Cc1ncc(Cl)cn1 [Example 1-66] | 100% | 90% | 100% | 100% | 100% | 90% | 100% | 100% | 100% | 100% | 100% | 100% | 100% | 100% | 100% | 100% | 100% | 100% | 100% | Post-emergence efficacy at 1280 g/ha against DIGSA in % [4]: 100%; Pre-emergence efficacy against ALOMY [12]: 90% |
| Fc1cnc(Cc2ccccc2Oc2ncc(Cl)cn2)nc1 [Example 1-70] | 100% |  | 90% |  |  |  |  |  | 90% | 90% | 90% | 100% | 100% | 90% | 100% | 90% | 100% | 100% | 90% | Post-emergence efficacy against MATIN [21]: 90%; Pre-emergence efficacy against MATIN [22]: 100% |
| Fc1cc(Cl)cnc1Cc1ccccc1SCCC(F)(F)F [Example 1-110] | 90% |  | 100% |  | 90% | 90% | 100% |  | 100% | 100% | 90% | 100% |  |  |  | 90% |  | 100% |  |  |
| Fc1cc(Cl)cnc1Cc1ccccc1-n1cc(C(F)(F)F)cn1 [Example 1-130] | 100% | 90% | 100% | 90% | 100% |  | 100% | 90% | 100% | 100% | 100% | 100% |  |  |  | 90% | 90% |  | 90% |  |
